Measurements published in US20090068290A1, “BIFEPRUNOX DOSES FOR TREATING SCHIZOPHRENIA” (priority 2006, published 2009).

Assays:
[1] = test system: adult subjects with schizophrenia; assay: Adverse events (TEAE, SAE, special interest, EPS-related TEAE), Clinical Study Two; type: in vivo, human
Procedure: Subjects who completed this study had the option to continue in the long-term. […] Risperidone-treated subjects were titrated from 2 mg to 6 mg daily over a three-day period and were subsequently maintained at 6 mg/day for the remainder of the treatment period. […] Blood samples were also obtained at Screening/Baseline, Week 3, and Week 6 for clinical laboratory assessments.

[2] = test system: adult subjects with schizophrenia; assay: PANSS general psychopathology subscale score, Clinical Study One; type: in vivo, human; details: for Change from Baseline in PANSS General Psychopathology Subscale Score, Mean (S.D.) / Change from Baseline in PANSS General Psychopathology Subscale Score, Median / Trt Effect (versus placebo), PANSS General Psychopathology Subscale Score: ITT population; for Trt Effect (versus placebo), PANSS General Psychopathology Subscale Score: ANCOVA
Procedure: There were five treatment groups in this study. […] Study medication was administered once daily. After Baseline measurements were performed, the titration phase was begun. Bifeprunox treated subjects were titrated up to 5 mg, 10 mg or 20 mg according to a standardized titration schedule (Day 1: 0.125 mg, Day 2: 0.25 mg, Day 3: 0.5 mg, Day 4: 1.0 mg, Day 5: 2.0 mg, Day 6: 5.0 mg, Day 7: 10.0 mg, Day 8: 20 mg). When the assigned dose was reached, subjects were maintained at that dose for the remainder of the six-week treatment period.
The change in the Positive and Negative Symptom Scale (PANSS) total score, from baseline to endpoint, was the primary outcome measure. Secondary efficacy measures included: PANSS positive, PANSS negative, PANSS general psychopathology (GPP) score, PANSS-derived Brief Psychiatric Rating Scale (BPRS) score, Clinical Global Impressions-Severity of Illness (CGI-S), CGI-Improvement (CGI-I) scores, and responder rates. Safety and tolerability evaluations included extrapyramidal symptoms (EPS), weight gain, lipid profile, and serum prolactin.

[3] = Bifeprunox 10 mg, Endpoint LOCF
[4] = Bifeprunox 20 mg, Endpoint LOCF

**Q.** What does the source list for O=c1[nH]c2cccc(N3CCN(Cc4cccc(-c5ccccc5)c4)CC3)c2o1 [Bifeprunox, 7-[4-([1,1′-biphenyl]-3-ylmethyl)-1-piperazinyl]-2(3H)-benzoxazolone]?
**A.** Syncope, % ([1]; BX 30 mg): 1 (<1%); TARDIVE DYSKINESIA, % ([1]; BX 30 mg): < 1%; TREMOR, % ([1]; BX 30 mg): 6%; AKATHISIA, % ([1]; BX 40 mg): (7%); Choreoathetosis, % ([1]; BX 40 mg): (<1%); DIZZINESS, % ([1]; BX 40 mg): (14%); DYSKINESIA, % ([1]; BX 40 mg): (3%); Dystonia, % ([1]; BX 40 mg): (2%); EXTRAPYRAMIDAL DISORDER, % ([1]; BX 40 mg): (5%); HEADACHE NOS, % ([1]; BX 40 mg): (17%); NERVOUS SYSTEM DISORDERS, % ([1]; BX 40 mg): (37%); SEDATION, % ([1]; BX 40 mg): 3%; SOMNOLENCE, % ([1]; BX 40 mg): 1 (<1%); TARDIVE DYSKINESIA, % ([1]; BX 40 mg): 1 (<1%); TREMOR, % ([1]; BX 40 mg): 7%; safety and tolerability ([1]; bifeprunox 30 mg and 40 mg, 6 weeks): safe and well tolerated; incidence of severe TEAE of schizophrenia ([1]; bifeprunox groups (30, 40 mg)): 3%; Change from Baseline in PANSS General Psychopathology Subscale Score, Mean (S.D.) ([2]; Bifeprunox 5 mg, Endpoint LOCF): −4.4 (9.4); Change from Baseline in PANSS General Psychopathology Subscale Score, Median ([2]; Bifeprunox 5 mg, Endpoint LOCF): −5; Trt Effect (versus placebo), PANSS General Psychopathology Subscale Score ([2]; Bifeprunox 5 mg, Endpoint LOCF): −2.2; Change from Baseline in PANSS General Psychopathology Subscale Score, Mean (S.D.) ([2]; Bifeprunox 5 mg, Week 1, LOCF): −1.7 (7.6); Change from Baseline in PANSS General Psychopathology Subscale Score, Median ([2]; Bifeprunox 5 mg, Week 1, LOCF): −2; Change from Baseline in PANSS General Psychopathology Subscale Score, Mean (S.D.) ([2]; Bifeprunox 5 mg, Week 2, LOCF): −2.8 (8.1); Change from Baseline in PANSS General Psychopathology Subscale Score, Median ([2]; Bifeprunox 5 mg, Week 2, LOCF): −2; Change from Baseline in PANSS General Psychopathology Subscale Score, Mean (S.D.) ([2]; Bifeprunox 5 mg, Week 3, LOCF): −3.3 (8.8); Change from Baseline in PANSS General Psychopathology Subscale Score, Median ([2]; Bifeprunox 5 mg, Week 3, LOCF): −3; Change from Baseline in PANSS General Psychopathology Subscale Score, Mean (S.D.) ([2]; Bifeprunox 5 mg, Week 4, LOCF): −3.7 (9.1); Change from Baseline in PANSS General Psychopathology Subscale Score, Median ([2]; Bifeprunox 5 mg, Week 4, LOCF): −4; Change from Baseline in PANSS General Psychopathology Subscale Score, Mean (S.D.) [2, 3]: −2.0 (9.2); Change from Baseline in PANSS General Psychopathology Subscale Score, Median [2, 3]: −1; Trt Effect (versus placebo), PANSS General Psychopathology Subscale Score [2, 3]: 0.4; Change from Baseline in PANSS General Psychopathology Subscale Score, Mean (S.D.) ([2]; Bifeprunox 10 mg, Week 1, LOCF): −0.9 (6.2); Change from Baseline in PANSS General Psychopathology Subscale Score, Median ([2]; Bifeprunox 10 mg, Week 1, LOCF): 0; Change from Baseline in PANSS General Psychopathology Subscale Score, Mean (S.D.) ([2]; Bifeprunox 10 mg, Week 2, LOCF): −1.5 (7.7); Change from Baseline in PANSS General Psychopathology Subscale Score, Median ([2]; Bifeprunox 10 mg, Week 2, LOCF): −2; Change from Baseline in PANSS General Psychopathology Subscale Score, Mean (S.D.) ([2]; Bifeprunox 10 mg, Week 3, LOCF): −1.7 (9.0); Change from Baseline in PANSS General Psychopathology Subscale Score, Median ([2]; Bifeprunox 10 mg, Week 3, LOCF): −1; Change from Baseline in PANSS General Psychopathology Subscale Score, Mean (S.D.) ([2]; Bifeprunox 10 mg, Week 4, LOCF): −1.4 (8.8); Change from Baseline in PANSS General Psychopathology Subscale Score, Median ([2]; Bifeprunox 10 mg, Week 4, LOCF): −1; Change from Baseline in PANSS General Psychopathology Subscale Score, Mean (S.D.) [2, 4]: −5.1 (8.8); Change from Baseline in PANSS General Psychopathology Subscale Score, Median [2, 4]: −5; Trt Effect (versus placebo), PANSS General Psychopathology Subscale Score [2, 4]: −2.8; Change from Baseline in PANSS General Psychopathology Subscale Score, Mean (S.D.) ([2]; Bifeprunox 20 mg, Week 1, LOCF): −3.0 (6.4); Change from Baseline in PANSS General Psychopathology Subscale Score, Median ([2]; Bifeprunox 20 mg, Week 1, LOCF): −2; Change from Baseline in PANSS General Psychopathology Subscale Score, Mean (S.D.) ([2]; Bifeprunox 20 mg, Week 2, LOCF): −4.4 (7.5); Change from Baseline in PANSS General Psychopathology Subscale Score, Median ([2]; Bifeprunox 20 mg, Week 2, LOCF): −5; Change from Baseline in PANSS General Psychopathology Subscale Score, Mean (S.D.) ([2]; Bifeprunox 20 mg, Week 3, LOCF): −5.2 (7.9); Change from Baseline in PANSS General Psychopathology Subscale Score, Median ([2]; Bifeprunox 20 mg, Week 3, LOCF): −6; Change from Baseline in PANSS General Psychopathology Subscale Score, Mean (S.D.) ([2]; Bifeprunox 20 mg, Week 4, LOCF): −5.2 (8.4); Change from Baseline in PANSS General Psychopathology Subscale Score, Median ([2]; Bifeprunox 20 mg, Week 4, LOCF): −6; PANSS general psychopathology score, estimate of the treatment effect ([2]; bifeprunox 5 mg, LOCF): −2.2; PANSS general psychopathology score, estimate of the treatment effect ([2]; bifeprunox 10 mg, LOCF): 0.4; PANSS general psychopathology score, estimate of the treatment effect ([2]; bifeprunox 20 mg, LOCF): −2.8
